Patent US20090232735A1, “USE OF FRUCTOSE-BASED THERAPIES FOR THE TREATMENT OF CANCER” (CEDARS-SINAI MEDICAL CENTER, priority 2005, published 2009)

Tests used:
Type in all cases: cell-based, human
normal pancreas cells = experiment: Proliferation of normal pancreas cells (BRDU-uptake, MTS); settings: 72 h
Method: (§1) FIG. 20 depicts a degree of increased proliferation of normal pancreatic cells in accordance with an embodiment of the present invention. Freshly resected normal pancreas tissues were mechanically and enzymatically dispersed, and cells were pre-incubated in 2 mM glucose prior to treatment with 5.5 mM glucose or fructose for 72 h. BRDU (10 μM) was added to the medium at 60 h, and BRDU-uptake quantified at 72 h.
In the course of obtaining fresh surgically resected pancreatic cancer tissue, the inventors also obtained some peripherally adjacent “normal” pancreatic tissue and normal tissue from a patient undergoing pancreas resection for complications of chronic pancreatitis. The inventors studied 5 of these “normal” pancreas tissues, and although caveats may exist given that they were derived from pancreases which were involved with another disease entity, the inventors believe they offer a useful comparator for the tumors. […] As before, BRDU (10 µM) was added, after which BRDU-uptake was quantified. In parallel experiments, when sufficient normal pancreatic issue was available, proliferative rates following 72 h incubation in the sugars were also measured using the MTS proliferation assay. […]

[1] = system: ER positive MCF-7 breast cancer cells; experiment: Breast cancer cell proliferation (MTT assay), MCF-7
Method: Estrogen receptor (ER) positive MCF-7, and ER negative MDA-MB231 cells were plated in 5 mM fructose or glucose for times between 8-72 h, and proliferative rates measured using MTT assay. *, p<0.05; **, p<0.01.
FIG. 5 depicts fructose-mediated increased breast cancer proliferation in accordance with an embodiment of the present invention. ER positive MCF-7, and ER negative MDA-MB231 cells were plated in a range of fructose or glucose concentrations (5-25 mM) for 72 h, after which proliferative rates were measured using an MTT assay. *, p<0.05 for concentrations between 5-25 mM fructose versus glucose.
Standard media for breast cancer cell culture contain either 5-7 mM (low) and 12-25 mM (high) glucose concentrations. Estrogen receptor (ER) positive MCF-7, and ER negative MDA-MB231 cells were cultured overnight in 2 mM glucose standard DMEM medium containing 10% fetal bovine serum prior to incubation for periods between 8, and 72 hours in standard DMEM medium containing 10% fetal bovine serum, and 5 mM glucose or 5 mM fructose.
Proliferative rates were then measured in replicate (minimum of 6) aliquot wells of the breast cancer cells grown in glucose, or fructose containing medium. […] In separate experiments, proliferative rates of the MCF-7, and MDA-MB231 breast cancer cells were compared following culture in a range of fructose, and glucose concentrations (2-25 mM) for 72 hours.

[2] = system: primary cultures of fresh surgically resected pancreatic cancers; experiment: BRDU uptake in primary cultures of resected pancreatic cancers; settings: all 5 primary pancreatic cancers, 5.5 mM, 72 h
Method: as §1, with “18” for “20”, “BRDU incorporation by” for “a degree of increased proliferation of normal”, “pancreatic cancers” for “normal pancreas tissues”, “mechanically,” for “mechanically”, “48” for “60”
As immortalized cell-lines, such as PANC-1 pancreatic cancer cells, can become dedifferentiated after repeated passages, and in order to translate these findings in the PANC-1 cells to patients with pancreatic cancer, the inventors also examined proliferative rates in primary cultures of fresh surgically resected pancreatic cancers, following incubation in 2 mM, and 5.5 mM glucose or 5.5 mM fructose. Briefly, after mechanical and enzymatic (trypsin and DNAse) disaggregation, aliquots of tumor cells were seeded in 6-well plates, and incubated in standard DMEM media with 10% fetal bovine serum, and 2 mM glucose, 5.5 mM glucose, or 5.5 mM fructose for 72 h. As before in the PANC-1 experiments, BRDU (10 μM) was added in the […] of incubation in the sugars, following which BRDU-uptake was quantified.

In the case of `O=C(CO)[C@@H](O)[C@H](O)[C@H](O)CO` [fructose], the “proliferative rates, 5.5 mM glucose vs 5.5 mM fructose” value (normal pancreas cells) is reported as “did not differ significantly”, the “proliferative rates in fructose compared to glucose” value ([1]; MCF-7, 5 mM fructose vs 5 mM glucose, 8-72 h) is reported as “higher proliferative rates” and the “proliferative rates in 5 mM fructose compared to 25 mM glucose” value ([1]; MCF-7, 72 hours, 5 mM fructose vs 5-fold higher glucose (25 mM)) is reported as “higher proliferative rates”. For the same compound, the “proliferative rates (BRDU-uptake) in fructose compared to glucose” value [2] was “higher proliferative rates”.
